Test results as given in US9662318B2, “Bitopic muscarinic agonists and antagonists and methods of synthesis and use thereof” (BARRY UNIVERSITY, INC., priority 2012, dated 2017).
Read-outs that look alike come from different tables or passages of the source.

Legend:
[1] = molecular target: T1, M3 muscarinic receptor (Homo sapiens, UniProt P20309); experiment: Accumulation of inositol phosphates in CHO cells; format: cell-based; conditions: ligand 0.1 mM, no carbachol
T1 construct: host or cells: Chinese hamster ovary cells
T1 sequence (P20309 whole entry): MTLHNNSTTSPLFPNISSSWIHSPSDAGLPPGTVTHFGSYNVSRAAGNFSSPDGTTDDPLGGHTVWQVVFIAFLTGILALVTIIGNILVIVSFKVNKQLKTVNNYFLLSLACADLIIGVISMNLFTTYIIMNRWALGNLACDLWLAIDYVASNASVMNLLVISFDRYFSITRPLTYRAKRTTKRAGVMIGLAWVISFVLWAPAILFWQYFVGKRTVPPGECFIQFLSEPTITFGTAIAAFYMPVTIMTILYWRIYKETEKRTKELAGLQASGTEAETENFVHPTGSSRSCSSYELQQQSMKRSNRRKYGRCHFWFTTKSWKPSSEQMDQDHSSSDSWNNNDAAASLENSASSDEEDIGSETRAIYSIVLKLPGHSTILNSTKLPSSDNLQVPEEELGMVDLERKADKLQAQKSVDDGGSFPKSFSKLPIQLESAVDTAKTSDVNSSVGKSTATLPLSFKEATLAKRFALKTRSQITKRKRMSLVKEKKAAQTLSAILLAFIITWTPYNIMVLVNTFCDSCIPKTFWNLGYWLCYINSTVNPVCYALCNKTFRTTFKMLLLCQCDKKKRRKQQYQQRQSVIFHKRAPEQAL
Method: Chinese hamster ovary cells stably transfected with the genes of human variants of muscarinic receptors were purchased from Missouri S&T cDNA Resource Center (Rolla, Mo., USA). […] Cells were grown to confluency in 75 cm^2 flasks in Dulbecco's modified Eagle's medium supplemented with 10% fetal bovine serum and 2 million of cells were subcultured to 100 mm Petri dishes. Medium was supplemented with 5 mM butyrate for the last 24 hours of cultivation to increase receptor expression.
Inositolphosphates formation was determined in cells pre-labeled overnight by 0.5 μM [^3H]myo-inositol in 0.3 mL of DMEM (3 μCi/ml) at 37° C. […] Incubation was stopped by removal of incubation buffer and addition 0.2 mL 20% trichloracetic acid (TCA). After 1 h incubation at 4° C., 100 μL, of TCA extracts were taken for measurement. Rest of the TCA was removed, and TCA precipitates were washed with 200 μL TCA and dissolved in 200 μL of 1 M NaOH. After 1 h incubation at 4° C., 100 μL, of NaOH lysates were taken for measurement. Radioactivity in TCA extracts and NaOH lysates were determined by liquid scintillation counting. The rate of inositolphosphates accumulation was calculated as a percentage of the soluble (released) inositolphosphates from the total incorporated radioactivity (sum of radioactivity in NaOH lysates and TCA extracts).
EC50 values are expressed as negative logarithms and EMAX values as folds over basal, Table 7.

[2] = molecular target: T2, M1 muscarinic receptor (Homo sapiens, UniProt P11229); experiment: biochemical; format: binding; conditions: competition with [^3H]QNB
T2 sequence (P11229 1-460): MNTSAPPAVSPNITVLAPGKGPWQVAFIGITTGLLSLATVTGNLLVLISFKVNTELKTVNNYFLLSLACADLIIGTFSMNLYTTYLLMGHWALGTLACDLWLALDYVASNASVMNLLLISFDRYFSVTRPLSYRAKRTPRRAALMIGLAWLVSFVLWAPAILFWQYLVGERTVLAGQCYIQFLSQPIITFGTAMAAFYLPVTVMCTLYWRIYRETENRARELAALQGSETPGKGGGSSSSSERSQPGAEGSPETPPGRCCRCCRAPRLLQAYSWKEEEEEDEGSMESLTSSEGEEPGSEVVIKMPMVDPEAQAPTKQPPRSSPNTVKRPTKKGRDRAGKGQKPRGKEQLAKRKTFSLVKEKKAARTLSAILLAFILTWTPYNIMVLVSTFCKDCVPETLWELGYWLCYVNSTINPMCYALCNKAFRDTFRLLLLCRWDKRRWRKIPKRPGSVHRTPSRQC

[3] = molecular target: T1, M3 muscarinic receptor; experiment: biochemical; format: binding; conditions: competition with [^3H]QNB
[4] = molecular target: T3, M5 muscarinic receptor (Homo sapiens, UniProt P08912); experiment: Competition with [3H]NMS (equilibrium binding, CHO membranes); conditions: for IC50: competition with [^3H]NMS
T3 construct: host or cells: CHO (Chinese hamster ovary) cells, stably transfected
T3 sequence (P08912 1-532): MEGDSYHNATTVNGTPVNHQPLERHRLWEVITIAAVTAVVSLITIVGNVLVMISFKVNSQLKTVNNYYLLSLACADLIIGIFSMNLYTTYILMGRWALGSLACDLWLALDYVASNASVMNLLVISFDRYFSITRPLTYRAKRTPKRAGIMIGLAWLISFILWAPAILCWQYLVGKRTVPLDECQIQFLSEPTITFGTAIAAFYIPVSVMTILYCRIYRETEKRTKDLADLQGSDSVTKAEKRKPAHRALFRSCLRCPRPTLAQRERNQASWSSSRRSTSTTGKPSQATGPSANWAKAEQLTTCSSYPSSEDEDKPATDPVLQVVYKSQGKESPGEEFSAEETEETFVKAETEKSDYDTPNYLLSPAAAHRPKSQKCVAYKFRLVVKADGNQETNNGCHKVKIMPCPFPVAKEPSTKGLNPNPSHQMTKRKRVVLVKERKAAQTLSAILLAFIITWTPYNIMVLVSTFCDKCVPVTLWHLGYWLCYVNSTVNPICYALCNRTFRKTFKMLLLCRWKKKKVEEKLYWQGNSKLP
Method: All radioligand binding experiments were optimized and carried out as described earlier. Briefly, membranes were incubated in 96-well plates at 30° C. in the incubation medium described. […] Dissociation was initiated by addition of atropine to final concentration of 5 Tested ligands in final concentration of 100 μM were added concurrently with atropine. Incubations were terminated by filtration through Whatman GF/C glass fiber filters (Whatman) using a Brandel cell harvester (Brandel, Gaithersburg, Md., USA). Filters were dried in vacuum for 1 h while heated at 80° C. and then solid scintillator Meltilex A was melted on filters (105° C., 90 s) using a hot plate. The filters were cooled and counted in Wallac Microbeta scintillation counter.
Inhibition constant KI was calculated as: […]

Structure (SMILES): CCCCOc1ccc(C(=O)OCC[N+]2(C)CCCCC2)cc1.[I-] [JB-D4, 2-(N-piperidineethyl) p-butoxybenzoate N-methyl iodide]
- Effect of ligands on basal activity (accumulation of inositol phosphates as percent of accumulation in the absence of the ligand) [1]: 102 ± 2%
- Ki ([2]; M1): 1.04 µM
- IC50 ([2]; M1, average of 3, read-out: avg IC50): 8.78 µM
- IC50 ([2]; M1, experiment 1, read-out: IC50—1): 8.72 µM
- IC50 ([2]; M1, experiment 2, read-out: IC50—2): 9.42 µM
- IC50 ([2]; M1, experiment 3, read-out: IC50—3): 8.19 µM
- Ki ([3]; M3): 4.34 µM
- IC50 ([3]; M3, average of 3, read-out: avg IC50): 29.4 µM
- IC50 ([3]; M3, experiment 1, read-out: IC50—1): 39.5 µM
- IC50 ([3]; M3, experiment 2, read-out: IC50—2): 20.6 µM
- IC50 ([3]; M3, experiment 3, read-out: IC50—3): 28.2 µM
- IC50 ([4]; M5, average of 3, read-out: avg IC50): 12.5 µM
- IC50 ([4]; M5, experiment 1, read-out: IC50—1): 12.5 µM
- IC50 ([4]; M5, experiment 2, read-out: IC50—2): 11.2 µM
- IC50 ([4]; M5, experiment 3, read-out: IC50—3): 13.7 µM
- Ki ([4]; read-out: KI): 2.88 µM
